Experimental findings from ChEMBL document CHEMBL5550122, “Photodynamic anticancer activity evaluation of novel 5-aminolevulinic acid and 3-hydroxypyridinone conjugates” (Bioorg Med Chem, 2024) are described below.

Data set [1] concerns A-375. Description: Cytotoxicity against human A-375 cells assessed as reduction in cell viability preincubated for 4 hrs under dark condition in presence of deferiprone followed by irradiation with blue light at 2.5 J.cm^-2 energy level for 5 mins and measured after 18 hrs by MTT assay. The settings on record: A-375, light or radiation study. Format: functional, cell-based. (Formazan colour is commonly taken as a measure of viable cells.)

Data set [2] has as its system MCF7. The experiment in a line: Cytotoxicity against human MCF7 cells assessed as reduction in cell viability preincubated for 4 hrs under dark condition followed by irradiation with blue light at 2.5 J.cm^-2 energy level for 5 mins and measured after 18 hrs by MTT assay. Format: functional, cell-based. Particulars: MCF7, light or radiation study.
Data set [3] relates to HeLa. Description: Cytotoxicity against human HeLa cells assessed as reduction in cell viability preincubated for 4 hrs under dark condition followed by irradiation with blue light at 2.5 J.cm^-2 energy level for 5 mins and measured after 18 hrs by MTT assay. Format: functional, cell-based. Particulars: light or radiation study.
For data set [4], the system named is HeLa. The experiment in a line: Cytotoxicity against human HeLa cells assessed as reduction in cell viability preincubated for 4 hrs under dark condition in presence of deferiprone followed by irradiation with blue light at 2.5 J.cm^-2 energy level for 5 mins and measured after 18 hrs by MTT assay. Format: functional, cell-based. Particulars: light or radiation study.

For data set [5], the system named is MCF7. Description: Cytotoxicity against human MCF7 cells assessed as reduction in cell viability preincubated for 4 hrs under dark condition in presence of deferiprone followed by irradiation with blue light at 2.5 J.cm^-2 energy level for 5 mins and measured after 18 hrs by MTT assay. Format: functional, cell-based. The settings on record: MCF7, light or radiation study.

In data set [6] the test system is A-375. Description: Cytotoxicity against human A-375 cells assessed as reduction in cell viability preincubated for 4 hrs under dark condition followed by irradiation with blue light at 2.5 J.cm^-2 energy level for 5 mins and measured after 18 hrs by MTT assay. Format: functional, cell-based. Particulars: A-375, light or radiation study.
Data set [7] in a line: Drug metabolism assessed as esterase (unknown origin) mediated hydrolysis by measuring 5-Aminolevulinic acid formation. Format: ADME. Particulars: human.
For data set [8], the system named is MCF7. Description: Cytotoxicity against human MCF7 cells assessed as reduction in cell viability at 100 uM incubated for 4 hrs under dark condition by MTT assay. Format: functional, cell-based.
A short description of data set [9]: Prodrug release in human A-375 cells assessed as 3-[(1Z,4Z,9Z,15Z)-7-(2-carboxyethyl)-3,8,12,17-tetramethyl-13,18-divinyl-21,23-dihydroporphyrin-2-yl]propanoic acid release by measuring fold increase in fluorescence intensity at 20 to 80 uM by microplate reader analysis relative to 5-Aminolevulinic acid. The settings on record: a-375, 80 µM, dose 20-80 µM. Format: ADME, cell-based.

The test system of data set [10] is HeLa. The experiment in a line: Cytotoxicity against human HeLa cells assessed as reduction in cell viability at 100 uM incubated for 4 hrs under dark condition by MTT assay. Format: functional, cell-based.
Data set [11] can be described thus: Prodrug release in human MCF7 cells assessed as 3-[(1Z,4Z,9Z,15Z)-7-(2-carboxyethyl)-3,8,12,17-tetramethyl-13,18-divinyl-21,23-dihydroporphyrin-2-yl]propanoic acid release by measuring fold increase in fluorescence intensity at 20 to 80 uM by microplate reader analysis relative to 5-Aminolevulinic acid. Format: ADME, cell-based. The settings on record: mcf7, 80 µM, dose 20-80 µM.

Data set [12] in a line: Prodrug release in human Hela cells assessed as 3-[(1Z,4Z,9Z,15Z)-7-(2-carboxyethyl)-3,8,12,17-tetramethyl-13,18-divinyl-21,23-dihydroporphyrin-2-yl]propanoic acid release by measuring increase in fluorescence intensity at 20 to 80 uM by microplate reader analysis. Format: ADME, cell-based. Particulars: dose 20-80 µM.
Data set [13] can be described thus: Prodrug release in human Hela cells assessed as 3-[(1Z,4Z,9Z,15Z)-7-(2-carboxyethyl)-3,8,12,17-tetramethyl-13,18-divinyl-21,23-dihydroporphyrin-2-yl]propanoic acid release by measuring fold increase in fluorescence intensity at 20 to 80 uM by microplate reader analysis relative to 5-Aminolevulinic acid. Format: ADME, cell-based. Particulars: dose 20-80 µM.
For data set [14], the system named is A-375. The experiment in a line: Cytotoxicity against human A-375 cells assessed as reduction in cell viability at 100 uM incubated for 4 hrs under dark condition by MTT assay. Format: functional, cell-based.
A short description of data set [15]: Drug metabolism assessed as esterase (unknown origin) mediated hydrolysis by measuring hydroxypyridinone formation. Format: ADME. The settings on record: human.
Data set [16] can be described thus: Prodrug release in human A-375 cells assessed as 3-[(1Z,4Z,9Z,15Z)-7-(2-carboxyethyl)-3,8,12,17-tetramethyl-13,18-divinyl-21,23-dihydroporphyrin-2-yl]propanoic acid release by measuring increase in fluorescence intensity at 20 to 80 uM by microplate reader analysis. Format: ADME, cell-based. Particulars: a-375, 80 µM, dose 20-80 µM.
Data set [17] in a line: Prodrug release in human MCF7 cells assessed as 3-[(1Z,4Z,9Z,15Z)-7-(2-carboxyethyl)-3,8,12,17-tetramethyl-13,18-divinyl-21,23-dihydroporphyrin-2-yl]propanoic acid release by measuring increase in fluorescence intensity at 20 to 80 uM by microplate reader analysis. Format: ADME, cell-based. Particulars: mcf7, 80 µM, dose 20-80 µM.
Data set [18] deals with A-375. Description: Cytotoxicity against human A-375 cells assessed as reduction in cell viability preincubated for 4 hrs under dark condition in presence of 5-aminolevulinic acid followed by irradiation with blue light at 2.5 J.cm^-2 energy level for 5 mins and measured after 18 hrs by MTT assay. Particulars: A-375, light or radiation study. Format: functional, cell-based.

The test system of data set [19] is MCF7. The experiment in a line: Cytotoxicity against human MCF7 cells assessed as reduction in cell viability preincubated for 4 hrs under dark condition in presence of 5-aminolevulinic acid followed by irradiation with blue light at 2.5 J.cm^-2 energy level for 5 mins and measured after 18 hrs by MTT assay. Format: functional, cell-based. Particulars: MCF7, light or radiation study.

Data set [20] concerns HeLa. The experiment in a line: Cytotoxicity against human HeLa cells assessed as reduction in cell viability preincubated for 4 hrs under dark condition in presence of 5-aminolevulinic acid followed by irradiation with blue light at 2.5 J.cm^-2 energy level for 5 mins and measured after 18 hrs by MTT assay. Format: functional, cell-based. Particulars: light or radiation study.

Active and inactive are the calls of the source. No cut-off for these calls is given here. Where only a bound is given, the exact number is not on record here.

The IC50 is the concentration that inhibits the measured activity by half. On to `NCC(=O)CCC(=O)O` [AMINOLEVULINIC ACID], for which the IC50 in the data set with A-375 [1] is 27.2 µM; with MCF7 [2], more than 100 µM; in the data set on HeLa [3], more than 100 µM; in the data set with HeLa [4] it was 61.8 µM; in the data set on MCF7 [5] it was 65 µM; in the data set on A-375 [6] it was more than 100 µM.
Turning to `CCCCCCn1c(C)cc(=O)c(O)c1COC(=O)CCC(=O)CN.Cl`, the Drug metabolism result in [7], in [12], in data set [15], in [16] and in data set [17] was “Metabolite_Detected” in each case. Further, the result in the data set with MCF7 [8], in the data set on HeLa [10] and in the data set on A-375 [14] was inactive. Besides, the figures for the IC50 in the data set on MCF7 [2], in the data set with HeLa [3] and in the data set on A-375 [6] were 43.3 µM, 24.2 µM and 28 µM, respectively. The entries for the “fold change (FC)” value in data set [9], in data set [11] and in [13] were 2.8, 5.3 and 18.9, respectively.
As for `Cc1c(O)c(=O)ccn1C` [DEFERIPRONE], the IC50 with A-375 [18] is 27.2 µM; with MCF7 [19], 65 µM; in the data set on HeLa [20], 61.8 µM.
With `CCOCCCn1c(C)cc(=O)c(O)c1COC(=O)CCC(=O)CN.Cl`, the Drug metabolism result in data set [7], in [12], in data set [15], in data set [16] and in [17] was “Metabolite_Detected” in each case. Besides, the outcome with MCF7 [8], in the data set on HeLa [10] and with A-375 [14] was inactive. Further, the IC50 came out at 64.7 µM in the data set with MCF7 [2], 43.9 µM in the data set on HeLa [3] and 52.2 µM in the data set with A-375 [6].
For the compound `CCCCCn1c(C)cc(=O)c(O)c1COC(=O)CCC(=O)CN.Cl`, the Drug metabolism entry in data set [7], in data set [12], in data set [15], in [16] and in data set [17] was “Metabolite_Detected” each time. Further, the outcome in the data set on MCF7 [8], with HeLa [10] and in the data set with A-375 [14] was inactive. Further, the IC50 in the data set with MCF7 [2] amounted to 45.8 µM; in the data set on HeLa [3] it was 47.5 µM; in the data set on A-375 [6], 46.4 µM.
For `COCCCn1c(C)cc(=O)c(O)c1COC(=O)CCC(=O)CN.Cl`, the Drug metabolism result in [7], in [12], in [15], in data set [16] and in data set [17] was “Metabolite_Detected” each time. Moreover, the outcome with MCF7 [8], in the data set with HeLa [10] and with A-375 [14] was inactive. The figures for the IC50 in the data set with MCF7 [2], in the data set with HeLa [3] and with A-375 [6] were 57.2 µM, 65.7 µM and 50.6 µM, respectively.
